# Data published in US20190375778A1, “ADENOSINE DERIVATIVES FOR USE IN THE TREATMENT OF CANCER” (NuCana plc, priority 2016, published 2019).
# Key:
# KG1a cell line = assay: Annexin V/propidium iodide cytotoxicity, KG1a unsorted; assay type: cell-based; settings: for cytotoxic potency compared in words: KG1a, versus 8-chloroadenosine or other isomers (FIG. 1, FIG. 7); for LD50: Homo sapiens, KG-1a, Annexin V/propidium iodide, 72 hrs
# Procedure: (§1) A further comparative analysis of the toxicity of compounds in the KG1a cell line over an extended dose range was carried out, and the relative effect assessed of the compounds on the leukaemic stem cell compartment within the KG1a cell line, across the entire dose range. Thus, experimental tests were performed on certain compounds of the present invention to assess their ability to target cancer stem cells in a leukaemic cell line. The acute myeloid leukaemia (AML) cell line, KG1a, was employed to assess the relative effect of compounds on the stem cell compartment. The KG1a cell line was selected because it manifests a minor stem cell-like compartment with a distinct immunophenotype (Lin^−/CD34^+/CD38^−/CD123^+).
# (§2) Cells of the KG1a cell line were maintained in RPMI medium (Invitrogen, Paisley, UK) supplemented with 100 units/ml penicillin, 100 μg/ml streptomycin and 20% foetal calf serum. Cells were subsequently aliquoted (10^5 cells/100 μl) into 96-well plates and were incubated at 37° C. in a humidified 5% carbon dioxide atmosphere for 72 hrs in the presence of nucleoside analogues and their respective nucleotide analogues (known as ProTides) at concentrations that were experimentally determined for each series of compounds. In addition, control cultures were carried out to which no drug was added. Cells were subsequently harvested by centrifugation and were analyzed by flow cytometry using the Annexin V assay.
# Cultured cells were harvested by centrifugation and then resuspended in 195 μl of calcium-rich buffer. Subsequently, 5 μl of Annexin V (Caltag Medsystems, Botolph Claydon, UK) was added to the cell suspension and cells were incubated in the dark for 10 mins prior to washing. Cells were finally resuspended in 190 μl of calcium-rich buffer together with 10 μl of propidium iodide. Apoptosis was assessed by dual-colour immunofluorescent flow cytometry as described previously. Subsequently LD50 values (the dose required to kill 50% of the cells in a culture) were calculated for each nucleoside analogue and ProTide.
# (§3) The data obtained in these experiments were evaluated using one way ANOVA. All data was confirmed as Gaussian or a Gaussian approximation using the omnibus K2 test. LD50 values were calculated from the non-linear regression and line of best-fit analysis of the sigmoidal dose-response curves. All statistical analyses were performed using Graphpad Prism 6.0 software (Graphpad Software Inc., San Diego, Calif.).
# [1] = test system: KG1a leukaemic stem cell compartment (Lin−/CD34+/CD38−/CD123+); assay: Leukaemic stem cell compartment in KG1a; assay type: cell-based; settings: for targeting of leukaemic/cancer stem cells in words: KG1a, compared to 8-chloroadenosine (FIG. 2, FIG. 8); for Change relative to control (%): % LSC compartment versus the series' control; for KG-1a (CD34+/CD38−/CD123+) % compartment: LSC as percentage of viable cells left, 72 hrs
# Procedure: as §1, §2
# KG1a cells were cultured for 72 hrs in the presence of a wide range of concentrations of each compound assayed. Cells were then harvested and labelled with a cocktail of anti-lineage antibodies (PE-cy7), anti-CD34 (FITC), anti-CD38 (PE) and anti-CD123 (PERCP cy5). The sub-population expressing a leukaemic stem cell (LSC) phenotype were subsequently identified and were expressed as a percentage of all viable cells left in the culture. The percentages of stem cells remaining were then plotted on a dose-response graph and the effects of the compounds were compared with 8-chloroadenosine.
# as §3
# FM3A = assay: Cytotoxicity, FM3A; assay type: cell-based, murine; settings: Mus musculus, read-out: absolute IC50, FM3A
# Source text: (§4) Lovo: cell line derived from a metastatic site in a patient with colon cancer MCF7: human oestrogen sensitive mammary epithelial cell line PC3: human prostate cancer cell line A549: cancerous lung tissue derived cells L1210: lymphoblast cell line derived from a mouse with lymphocytic leukaemia FM3A: mammary carcinoma murine cells CEM: human T-lymphoblasts, derived from the blood of a patient with acute lymphoblastic leukaemia HeLa: epithelial cells from a patient with cervical adenocarcinoma
# PC3 = assay: MTT cytotoxicity assay, PC3; assay type: cell-based; settings: Homo sapiens, PC-3, 96 h compound exposure, read-out: absolute IC50, PC3
# Source text: as §4
# (§5) Anti-tumour evaluation in MCF7, LoVo, A549 and PC3 cell lines was performed by MTT assay. Compounds were prepared as 0.1-100 mM stock solutions dissolved in DMSO and stored at −20° C. Cells were seeded into 96-well microtitre plates at a density of 5×10^3 cells per well and allowed 24 hours to adhere. Decimal compound dilutions were prepared in medium immediately prior to each assay (final concentration 0.1-100 μM). Experimental medium was DMEM+10% FCS (PC3 and Lovo) or RPMI+10% heat inactivated FCS (A549 and MCF7). Following 96 h compound exposure at 37° C., 5% CO2, MTT reagent (Sigma Aldrich) was added to each well (final concentration 0.5 mg/ml). Incubation at 37° C. for 4 h allowed reduction of MTT by viable cells to an insoluble formazan product. MTT was removed and formazan solubilised by addition of 10% Triton X-100 in PBS. Absorbance was read on a Tecan Sunrise spectrophotometer at 540 nm as a measure of cell viability; thus inhibition relative to control was determined (IC50).
# MCF7 = assay: MTT cytotoxicity assay, MCF7; assay type: cell-based; settings: Homo sapiens, 96 h compound exposure, read-out: absolute IC50, MCF7
# Source text: as §4, §5
# Lovo = assay: MTT cytotoxicity assay, Lovo; assay type: cell-based; settings: Homo sapiens, 96 h compound exposure, read-out: absolute IC50, Lovo
# Source text: as §4, §5
# A549 = assay: MTT cytotoxicity assay, A549; assay type: cell-based; settings: Homo sapiens, 96 h compound exposure, read-out: absolute IC50, A549
# Source text: as §4, §5
# [2] = test system: human cervix carcinoma HeLa cells; assay: Cell proliferation (Coulter count) assay, HeLa; assay type: cell-based; settings: 120 h, cell count on day 5, read-out: absolute IC50, HeLa
# Source text: as §4
# (§6) Murine leukemia L1210, human T-lymphocyte CEM, and human cervix carcinoma HeLa cells were obtained from the American Type Culture Collection (ATCC) (Rockville, Md.). All cells were maintained in Dulbecco's modified Eagle's medium (DMEM) (Invitrogen, Carlsbad, Calif.) with 10% fetal bovine serum (FBS) (Biochrom AG, Berlin, Germany), 10 mM Hepes, and 1 mM sodiumpyruvate (Invitrogen). Cells were grown at 37° C. in a humidified incubator with a gas phase of 5% CO2. Monolayer cells (HeLa and […]) were seeded in 96-well microtiter plates (Nunc, Roskilde, Denmark) at 10 000 cells/well. After 24 h, an equal volume of fresh medium containing the test compounds was added. On day 5, cells were trypsinized and counted in a Coulter counter (Analis, Suarlee, Belgium). Suspension cells (L1210, CEM) were seeded in 96-well microtiter plates (Nunc) at 60 000 cells/well in the presence of a given amount of the test compounds. The cells were allowed to proliferate for 48 h (L1210) or 72 h (CEM) and were then counted in a Coulter counter. The 50% inhibitory concentration (IC50) was defined as the compound concentration required to reduce cell proliferation by 50%. The cytostatic activity of the compounds was determined after 3 days, as outlined above.
# Murine leukemia L1210 = assay: Cell proliferation (Coulter count) assay, L1210; assay type: cell-based; settings: Mus musculus, 48 h, read-out: absolute IC50, L1210
# Source text: as §4, §6
# human T-lymphocyte CEM = assay: Cell proliferation (Coulter count) assay, CEM; assay type: cell-based; settings: 72 h, read-out: absolute IC50, CEM
# Source text: as §4, §6
# CCRFCEM = assay: CellTiterGlo viability assay, CCRFCEM; assay type: cell-based; settings: Homo sapiens, CCRF-CEM, 72 h, read-out: IC50 CCRFCEM
# Procedure: (§7) In vitro viability assay were performed to assess the effects of compounds on cell viability in selected cell lines over ˜72 hrs using the CellTiterGlo (CTG, Promega-G7573) assay. The tests were performed in duplicates with treatment of compounds at 9 points, 3.16 folds titration in 96 well plates over ˜72 hrs. The compound starting concentrations were 198 μM. Cell viability assay using CellTiterGlo in 96-well plate were performed. Compound treatment 72 hrs, standard growth conditions, duplicates. Compounds were dissolved to 40 mM with thawed […]. Compounds were serially diluted at 3.16 fold in thawed DMSO, and warmed to 37° C. before being dissolved in media (2 μl+200 μl). After compounds were dissolved in media, media containing compounds were warmed to 37° C. in incubator and then compounds in media were added to cell plates (50 μl+50 μl) in duplicates. The compounds' final concentrations were from […] to 19.9 nM. All compound solubilities were checked and recorded again, then the plates were transferred to CO2 tissue culture incubator immediately and incubated for 3 days. DMSO final concentration is 0.5%.
# KG-1 = assay: CellTiterGlo viability assay, KG-1; assay type: cell-based; settings: Homo sapiens, KG-1, 72 h, read-out: IC50 KG-1
# Procedure: as §7
# HL-60 = assay: CellTiterGlo viability assay, HL-60; assay type: cell-based; settings: Homo sapiens, HL-60, 72 h, read-out: IC50 HL-60
# Procedure: as §7
# MV4-11 = assay: CellTiterGlo viability assay, MV4-11; assay type: cell-based; settings: Homo sapiens, MV4-11, 72 h, read-out: IC50 MV4-11
# Procedure: as §7
# HEL92.1.7 = assay: CellTiterGlo viability assay, HEL92.1.7; assay type: cell-based; settings: Homo sapiens, HEL 92.1.7, 72 h, read-out: IC50 HEL92.1.7
# Procedure: as §7
# RPMI-8226 = assay: CellTiterGlo viability assay, RPMI-8226; assay type: cell-based, Human; settings: Homo sapiens, RPMI-8226, 72 h, read-out: IC50 RPMI-8226
# Procedure: as §7
# K562 = assay: CellTiterGlo viability assay, K562; assay type: cell-based; settings: Homo sapiens, K562, 72 h, read-out: IC50 K562
# Procedure: as §7
# NCI-H929 = assay: CellTiterGlo viability assay, NCI-H929; assay type: cell-based; settings: Homo sapiens, NCI-H929, 72 h, read-out: IC50 NCI-H929
# Procedure: as §7
# RL = assay: CellTiterGlo viability assay, RL; assay type: cell-based; settings: Homo sapiens, RL, 72 h, read-out: IC50 RL
# Procedure: as §7
Structure (SMILES),IC50 (FM3A) [µM],IC50 (PC3) [µM],IC50 (MCF7) [µM],IC50 (Lovo) [µM],IC50 (A549) [µM],IC50 [2] [µM],IC50 (Murine leukemia L1210) [µM],IC50 (human T-lymphocyte CEM) [µM],further results
"C[C@H](NP(=O)(OC[C@H]1O[C@@H](n2c(Cl)nc3c(N)ncnc32)[C@H](O)[C@@H]1O)Oc1cccc2ccccc12)C(=O)OCc1ccccc1 (single isomer, unassigned) [Isomer A of Compound D]",,,,,,,,,cytotoxic potency compared in words (KG1a cell line): significantly more potent; targeting of leukaemic/cancer stem cells in words [1]: statistically significantly increased ability to target cancer stem cells
"Nc1ncnc2c1nc(Cl)n2[C@@H]1O[C@H](COP(=O)(NCC(=O)OCc2ccccc2)Oc2ccccc2)[C@@H](O)[C@H]1O (single isomer, unassigned; isomer a) [Isomer A of Compound B]",,,,,,,,,cytotoxic potency compared in words (KG1a cell line): significantly more potent; targeting of leukaemic/cancer stem cells in words [1]: statistically significantly increased ability to target cancer stem cells
"CC(C)[C@H](NP(=O)(OC[C@H]1O[C@@H](n2c(Cl)nc3c(N)ncnc32)C(O)C1O)Oc1ccccc1)C(=O)OCc1ccccc1 (stereo partly drawn) [AA, 5′-([(Benzyloxy-L-valin-N-yl)-phenyl]-phosphatyl) 8-chloroadenosine]",15 to 100,15 to 100,0.1 to 5,0.1 to 5,15 to 100,5 to 15,15 to 100,15 to 100,
C[C@H](NP(=O)(OC[C@H]1O[C@@H](n2cnc3c(N)nc(Cl)nc32)[C@H](F)C1O)Oc1cccc2ccccc12)C(=O)OCc1ccccc1 (some centres unmarked) [Comparative compound 1],,,,,,,,,LD50 (KG1a cell line): 140 nM; Change relative to control (%) [1]: −0.2%; KG-1a (CD34+/CD38−/CD123+) % compartment [1]: 3.3%
C[C@H](NP(=O)(OC[C@H]1O[C@@H](n2cnc3c(N)nc(Cl)nc32)CC1O)Oc1cccc2ccccc12)C(=O)OCc1ccccc1 (some centres unmarked) [Comparative compound 2],,,,,,,,,LD50 (KG1a cell line): 820 nM; Change relative to control (%) [1]: −0.5%; KG-1a (CD34+/CD38−/CD123+) % compartment [1]: 3.5%
"CCCCCOC(=O)[C@H](Cc1ccccc1)NP(=O)(OC[C@H]1O[C@@H](n2c(Cl)nc3c(N)ncnc32)C(O)C1O)Oc1cccc2ccccc12 (stereo partly drawn) [Q, 5′-([(Pent-1-yloxy-L-phenylalanin-N-yl)-naphth-1-yl]-phosphatyl) 8-chloroadenosine]",,,,,,0.1 to 5,5 to 15,0.1 to 5,IC50 (CCRFCEM): 5 to 15 µM; IC50 (KG-1): 5 to 15 µM; IC50 (HL-60): 5 to 15 µM; IC50 (MV4-11): 0.1 to 5 µM; IC50 (HEL92.1.7): 0.1 to 5 µM; IC50 (RPMI-8226): 0.1 to 5 µM; IC50 (K562): 0.1 to 5 µM; IC50 (NCI-H929): 5 to 15 µM; IC50 (RL): 5 to 15 µM
"C[C@@H](NP(=O)(OC[C@H]1O[C@@H](n2c(Cl)nc3c(N)ncnc32)C(O)C1O)Oc1ccccc1)C(=O)OCc1ccccc1 (stereo partly drawn) [T, 5′-([(Benzyloxy-D-alanin-N-yl)-phenyl]-phosphatyl) 8-chloroadenosine]",15 to 100,0.1 to 5,15 to 100,0.1 to 5,15 to 100,5 to 15,15 to 100,15 to 100,
"Nc1ncnc2c1nc(Cl)n2[C@@H]1O[C@H](COP(=O)(N[C@@H](Cc2ccccc2)C(=O)OCc2ccccc2)Oc2ccccc2)C(O)C1O (stereo partly drawn) [U, 5′-([(Benzyloxy-L-phenylalanin-N-yl)-phenyl]-phosphatyl) 8-chloroadenosine]",15 to 100,0.1 to 5,0.1 to 5,0.1 to 5,0.1 to 5,0.1 to 5,15 to 100,5 to 15,
"C[C@H](NP(=O)(OC[C@H]1O[C@@H](n2c(Cl)nc3c(N)ncnc32)C(O)C1O)Oc1ccccc1)C(=O)OC1CCCCC1 (stereo partly drawn) [X, 5′-([(Cyclohexyloxy-L-alanin-N-yl)-phenyl]-phosphatyl) 8-chloroadenosine]",,0.1 to 5,0.1 to 5,0.1 to 5,15 to 100,,,,
